Assay: Unspecified test of effectiveness of AII fragments

With “Tyr-Ile-His-Pro-Phe (YIHPF; printed: Tyr-Ile-His-Pro-Phe) [AII(4-8)]” the effectiveness was “not to be effective”.
With His-Pro-Phe [AII(6-8)] the effectiveness was “not to be effective”.
